According to patent US20130184227A1, “Cytochrome P450 2C9 Inhibitors” (priority 2004, published 2013):
Where two headings read alike, the source gives them in different places.

Key:
CYP2C9 [1] = settings: for % inhibition of CYP2C9 activity: tolbutamide 1 mM, rat liver microsomes; for 4′-hydroxytolbutamide: Sprague-Dawley, rat, 7.5 min, pH 7.4
[2] = rats; cited from earlier work
CYP2C9 [3] = molecular target: CYP2C9 (Homo sapiens, UniProt P11712); settings: cited from earlier work
in vivo = settings: Sprague-Dawley, rat, po, 1.5 mg/kg; for Cmax: Cmax of fluvastatin
Procedure: (§1) The test system used is the Sprague-Dawley rat.
(§2) After overnight fast, rats are anesthetized and prepared with a jugular catheter. […] Twelve blood samples (including pre dose blank) are collected over 24 hours—0, 10, 20, 40, 60, 120, 240, 360, 480, 720, 1080 and 1440 minutes. Each sample (0.5 to 0.6 mL blood) is collected into microfuge tubes containing 20 uL of 10 IU heparin (anti-coagulant). After separation, plasma samples are protected from light and stored at −80° C. freezer.

CYP2C9 [4] = experiment: in vitro; settings: Sprague-Dawley, rat, microsomes
[5] = In vivo study in rodents: fluvastatin pharmacokinetics with or without tamarixetin; settings: tamarixetin pretreatment versus control, rats
Procedure: as §1, §2

[6] = pH 7.4, % inhibition of CYP2C9 activity
[7] = pH 7.4, % inhibition of tolbutamide metabolism in microsomes

Chain of CYP2C9 (Homo sapiens, UniProt P11712) (P11712 whole entry): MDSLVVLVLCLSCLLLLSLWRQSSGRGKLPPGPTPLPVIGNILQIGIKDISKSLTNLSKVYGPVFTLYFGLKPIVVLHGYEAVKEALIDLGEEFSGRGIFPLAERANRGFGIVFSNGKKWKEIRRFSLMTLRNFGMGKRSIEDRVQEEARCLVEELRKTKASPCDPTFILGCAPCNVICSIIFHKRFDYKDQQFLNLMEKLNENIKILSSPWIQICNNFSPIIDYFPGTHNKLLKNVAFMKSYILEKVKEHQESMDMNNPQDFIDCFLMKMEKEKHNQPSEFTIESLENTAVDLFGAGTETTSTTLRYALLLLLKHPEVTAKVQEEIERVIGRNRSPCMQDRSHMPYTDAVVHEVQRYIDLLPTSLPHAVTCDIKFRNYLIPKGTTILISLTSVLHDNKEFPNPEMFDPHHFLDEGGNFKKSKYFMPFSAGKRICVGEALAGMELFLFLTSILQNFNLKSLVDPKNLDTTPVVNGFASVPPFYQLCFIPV

**Q.** For `O=c1cc(-c2ccccc2)oc2ccc3ccccc3c12` [β-Naphthoflavone], which “% inhibition of CYP2C9 activity” value (CYP2C9 [1]; test article 1 μM) is on record?
**A.** 2.35%

**Q.** And the “% inhibition of CYP2C9 activity” value (CYP2C9 [1]; test article 10 μM)?
**A.** 4.64%

**Q.** Which results are given for `O=C1C[C@@H](c2ccc(O)cc2)Oc2cc(O)cc(O)c21` [Narigenin]?
**A.** % inhibition of CYP2C9 activity (CYP2C9 [1]; test article 1 μM): 5.20%; % inhibition of CYP2C9 activity (CYP2C9 [1]; test article 10 μM): 49.98%; % inhibition of CYP2C9 activity (CYP2C9 [1]; test article 100 μM): 79.70%

**Q.** Which results are given for `O=c1cc(-c2ccc(O)c(O)c2)oc2cc(O)c([C@@H]3O[C@H](CO)[C@@H](O)[C@H](O)[C@H]3O)c(O)c12` [Homoorientin]?
**A.** % inhibition of CYP2C9 activity (CYP2C9 [1]; test article 1 μM): 3.37%; % inhibition of CYP2C9 activity (CYP2C9 [1]; test article 10 μM): 2.45%; % inhibition of CYP2C9 activity (CYP2C9 [1]; test article 100 μM): 20.19%

**Q.** Which oral bioavailability [2] does the source give for `CCCCNC(=O)NS(=O)(=O)c1ccc(C)cc1` [tolbutamide] here?
**A.** 90%

**Q.** What does the source list for `CC(C)n1c(/C=C/C(O)CC(O)CC(=O)O)c(-c2ccc(F)cc2)c2ccccc21` (stereo not shown) [fluvastatin]?
**A.** share of metabolism for which liver CYP2C9 is responsible (CYP2C9 [3]): approximately 80%; AUC(0-inf) (in vivo): 950 ± 133 ng·h/mL; AUC(0-t) (in vivo): 711 ± 81.5 ng·h/mL; MRT inf (in vivo): 15.8 ± 1.56 h; Tmax (in vivo): 4.7 ± 1.7 h; Cmax (in vivo): 63.1 ± 10.4 ng/mL; Cmax (in vivo; control group): 63.1 ± 10.4 ng/mL

**Q.** With `O=c1c(-c2ccc(O)cc2)coc2c([C@@H]3O[C@H](CO)[C@@H](O)[C@H](O)[C@H]3O)c(O)ccc12` [Puerarin] as the compound, how does the inhibition at 7.5 min, 1 μM (CYP2C9 [4]; [6]) read?
**A.** 38.1%

**Q.** What about the inhibition at 7.5 min, 10 μM (CYP2C9 [4]; [6]) of the same compound?
**A.** 39%

**Q.** What about the inhibition at 7.5 min, 100 μM (CYP2C9 [4]; [6]) of the same compound?
**A.** 33.3%

**Q.** What does the source list for `C=C(C)C1CC=C(C)CC1` (single isomer, unassigned; (+)) [(+)-Limonene]?
**A.** % inhibition of CYP2C9 activity (CYP2C9 [1]; test article 1 μM): 14.12%; % inhibition of CYP2C9 activity (CYP2C9 [1]; test article 10 μM): 10.55%; % inhibition of CYP2C9 activity (CYP2C9 [1]; test article 100 μM): 22.29%

**Q.** For `COc1ccc(-c2oc3cc(O)cc(O)c3c(=O)c2O)cc1O` [Tamarixetin], which “4′-hydroxytolbutamide” value (CYP2C9 [1]; 1 μM) is on record?
**A.** 213.5696 ± 24.4309 ng

**Q.** And the “4′-hydroxytolbutamide” value (CYP2C9 [1]; 10 μM)?
**A.** 43.1 ± 2.5372 ng

**Q.** And the “4′-hydroxytolbutamide” value (CYP2C9 [1]; 100 μM)?
**A.** 35.49 ± 1.5825 ng

**Q.** And the “change of terminal elimination rate constant (k) of fluvastatin” value [5]?
**A.** no apparent changes

**Q.** And the inhibition at 7.5 min, 1 μM (CYP2C9 [4]; pH 7.4, % inhibition)?
**A.** 42%

**Q.** What about the inhibition at 7.5 min, 10 μM (CYP2C9 [4]; pH 7.4, % inhibition) of the same compound?
**A.** 88.2%

**Q.** And the inhibition at 7.5 min, 100 μM (CYP2C9 [4]; pH 7.4, % inhibition)?
**A.** 90.2%

**Q.** What about the inhibition at 7.5 min, 1 μM (CYP2C9 [4]; [6]) of the same compound?
**A.** 42%

**Q.** What about the inhibition at 7.5 min, 10 μM (CYP2C9 [4]; [6]) of the same compound?
**A.** 88.1%

**Q.** What about the inhibition at 7.5 min, 100 μM (CYP2C9 [4]; [6]) of the same compound?
**A.** 90.2%

**Q.** And the inhibition at 7.5 min, 1 μM (CYP2C9 [4]; [7])?
**A.** 42%

**Q.** And the inhibition at 7.5 min, 10 μM (CYP2C9 [4]; [7])?
**A.** 88.1%

**Q.** What about the inhibition at 7.5 min, 100 μM (CYP2C9 [4]; [7]) of the same compound?
**A.** 90.2%

**Q.** For `O=c1ccc2ccc(O)cc2o1` [Umbelliferone], which inhibition at 7.5 min, 1 μM (CYP2C9 [4]; [6]) is on record?
**A.** -7.17%

**Q.** What about the inhibition at 7.5 min, 10 μM (CYP2C9 [4]; [6]) of the same compound?
**A.** -6.64%

**Q.** And the inhibition at 7.5 min, 100 μM (CYP2C9 [4]; [6])?
**A.** -2.02%

**Q.** Which inhibition at 7.5 min, 1 μM (CYP2C9 [4]; [6]) does the source give for `CCCCCCCCCCCC1=C(O)C(=O)C=C(O)C1=O` [Embelin] here?
**A.** 24.7%

**Q.** And the inhibition at 7.5 min, 10 μM (CYP2C9 [4]; [6])?
**A.** 11.2%

**Q.** What about the inhibition at 7.5 min, 50 μM (CYP2C9 [4]; [6]) of the same compound?
**A.** 18%

**Q.** Which results are given for `O=C(CCc1ccc(O)cc1)c1c(O)cc(O)cc1O` [Phloretin]?
**A.** inhibition at 7.5 min, 1 μM (CYP2C9 [4]; [6]): 23.8%; inhibition at 7.5 min, 10 μM (CYP2C9 [4]; [6]): 34.4%; inhibition at 7.5 min, 100 μM (CYP2C9 [4]; [6]): 95.1%

**Q.** With `COc1ccc([C@@H]2CC(=O)c3c(O)cc(O[C@@H]4O[C@H](CO)[C@@H](O)[C@H](O)[C@H]4O[C@@H]4O[C@@H](C)[C@H](O)[C@@H](O)[C@H]4O)cc3O2)cc1` [Poncirin] as the compound, how does the inhibition at 7.5 min, 1 μM (CYP2C9 [4]; [6]) read?
**A.** 7.76%

**Q.** What about the inhibition at 7.5 min, 10 μM (CYP2C9 [4]; [6]) of the same compound?
**A.** 16.3%

**Q.** What about the inhibition at 7.5 min, 100 μM (CYP2C9 [4]; [6]) of the same compound?
**A.** 15%

**Q.** For `COc1ccc([C@@H]2CC(=O)c3c(O)cc(O[C@@H]4O[C@H](CO[C@@H]5O[C@@H](C)[C@H](O)[C@@H](O)[C@H]5O)[C@@H](O)[C@H](O)[C@H]4O)cc3O2)cc1O` [Hesperidin], which “% inhibition of CYP2C9 activity” value (CYP2C9 [1]; test article 1 μM) is on record?
**A.** 2.57%

**Q.** What about the “% inhibition of CYP2C9 activity” value (CYP2C9 [1]; test article 10 μM) of the same compound?
**A.** 6.68%
